{
  "source": "paper PMC11354204",
  "about": "“Lactylation stabilizes TFEB to elevate autophagy and lysosomal activity” (The Journal of Cell Biology, 2024)",
  "key": {"p300; p300-HA": {"target": "T1, p300; p300-HA (Homo sapiens, UniProt Q09472)", "T1 construct": "gene EP300; HA-tagged p300 immunoprecipitated from transfected HEK293T cells", "T1 sequence (Q09472 2-2414)": "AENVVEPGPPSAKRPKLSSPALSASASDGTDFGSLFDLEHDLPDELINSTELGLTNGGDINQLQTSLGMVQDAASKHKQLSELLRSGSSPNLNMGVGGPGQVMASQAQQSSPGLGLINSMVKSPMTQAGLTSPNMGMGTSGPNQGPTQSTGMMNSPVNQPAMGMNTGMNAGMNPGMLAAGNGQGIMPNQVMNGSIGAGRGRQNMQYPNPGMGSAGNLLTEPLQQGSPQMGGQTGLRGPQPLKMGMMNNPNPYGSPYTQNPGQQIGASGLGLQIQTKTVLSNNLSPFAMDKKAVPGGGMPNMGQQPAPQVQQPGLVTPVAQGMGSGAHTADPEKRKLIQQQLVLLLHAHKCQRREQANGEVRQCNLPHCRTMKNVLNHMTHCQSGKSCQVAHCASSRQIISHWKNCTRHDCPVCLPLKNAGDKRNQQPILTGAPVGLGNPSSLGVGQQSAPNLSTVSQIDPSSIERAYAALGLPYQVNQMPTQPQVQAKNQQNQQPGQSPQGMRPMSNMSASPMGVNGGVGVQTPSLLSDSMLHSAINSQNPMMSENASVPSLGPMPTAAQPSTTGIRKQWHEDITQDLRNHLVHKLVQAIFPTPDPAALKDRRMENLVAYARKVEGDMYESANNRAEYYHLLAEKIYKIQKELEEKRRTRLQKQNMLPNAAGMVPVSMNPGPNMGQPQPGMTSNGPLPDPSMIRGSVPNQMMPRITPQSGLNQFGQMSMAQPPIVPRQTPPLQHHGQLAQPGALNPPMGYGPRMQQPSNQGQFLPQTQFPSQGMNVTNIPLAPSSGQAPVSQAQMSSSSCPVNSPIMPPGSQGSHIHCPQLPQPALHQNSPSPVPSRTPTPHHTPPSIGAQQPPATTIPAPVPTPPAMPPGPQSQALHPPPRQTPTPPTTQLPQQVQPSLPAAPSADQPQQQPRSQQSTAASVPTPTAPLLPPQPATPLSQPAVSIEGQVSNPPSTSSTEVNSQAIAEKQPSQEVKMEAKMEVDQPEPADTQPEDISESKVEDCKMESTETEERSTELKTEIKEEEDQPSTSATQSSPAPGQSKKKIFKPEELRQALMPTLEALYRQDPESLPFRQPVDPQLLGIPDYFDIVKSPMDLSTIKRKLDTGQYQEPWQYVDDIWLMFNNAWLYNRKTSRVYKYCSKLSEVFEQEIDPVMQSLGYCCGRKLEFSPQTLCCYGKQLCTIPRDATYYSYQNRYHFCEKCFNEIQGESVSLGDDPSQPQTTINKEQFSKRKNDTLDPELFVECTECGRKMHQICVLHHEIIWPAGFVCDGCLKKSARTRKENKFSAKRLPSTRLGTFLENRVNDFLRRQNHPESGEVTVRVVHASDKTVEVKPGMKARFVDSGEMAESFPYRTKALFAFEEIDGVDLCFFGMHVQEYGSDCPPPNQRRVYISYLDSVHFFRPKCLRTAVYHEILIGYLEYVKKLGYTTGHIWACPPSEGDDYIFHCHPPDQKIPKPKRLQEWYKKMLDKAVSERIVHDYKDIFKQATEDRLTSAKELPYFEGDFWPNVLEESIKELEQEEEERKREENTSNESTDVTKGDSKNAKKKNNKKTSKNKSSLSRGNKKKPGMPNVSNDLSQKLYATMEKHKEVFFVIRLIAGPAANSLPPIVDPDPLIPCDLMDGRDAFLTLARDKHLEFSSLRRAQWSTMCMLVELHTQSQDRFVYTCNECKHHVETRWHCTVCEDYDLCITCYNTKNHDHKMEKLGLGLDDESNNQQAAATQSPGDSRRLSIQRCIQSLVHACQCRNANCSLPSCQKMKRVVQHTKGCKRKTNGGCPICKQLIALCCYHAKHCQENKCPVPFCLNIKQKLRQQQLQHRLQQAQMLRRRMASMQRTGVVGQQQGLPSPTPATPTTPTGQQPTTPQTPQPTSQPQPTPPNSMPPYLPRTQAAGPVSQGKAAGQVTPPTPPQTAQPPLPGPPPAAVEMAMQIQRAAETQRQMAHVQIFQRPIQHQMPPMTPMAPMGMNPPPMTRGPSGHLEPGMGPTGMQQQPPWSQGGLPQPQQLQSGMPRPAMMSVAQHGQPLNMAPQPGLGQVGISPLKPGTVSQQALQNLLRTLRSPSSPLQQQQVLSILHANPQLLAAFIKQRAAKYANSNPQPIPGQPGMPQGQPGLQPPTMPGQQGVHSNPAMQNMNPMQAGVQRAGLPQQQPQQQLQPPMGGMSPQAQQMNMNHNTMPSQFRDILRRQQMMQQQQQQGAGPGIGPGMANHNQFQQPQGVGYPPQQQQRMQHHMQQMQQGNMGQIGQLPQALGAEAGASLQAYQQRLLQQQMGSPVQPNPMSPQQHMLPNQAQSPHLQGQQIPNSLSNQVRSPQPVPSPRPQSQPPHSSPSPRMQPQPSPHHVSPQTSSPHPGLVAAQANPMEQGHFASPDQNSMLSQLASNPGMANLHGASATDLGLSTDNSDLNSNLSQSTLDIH", "assay": "in vitro lactylation of recombinant human TFEB, anti-Kla western blot", "format": "biochemical", "conditions": "acyl donor; acceptor protein TFEB (10 μg); immunoprecipitated p300-HA; 50 mM Tris-HCl pH 8.0, 30 °C, 1 h"}, "NDRG3": {"target": "T2, NDRG3 (Homo sapiens, UniProt Q9UGV2)", "T2 construct": "human NDRG3 in pGEX-5X-1, GST-tagged, expressed in E. coli BL21, glutathione-Sepharose", "T2 sequence (Q9UGV2 whole entry)": "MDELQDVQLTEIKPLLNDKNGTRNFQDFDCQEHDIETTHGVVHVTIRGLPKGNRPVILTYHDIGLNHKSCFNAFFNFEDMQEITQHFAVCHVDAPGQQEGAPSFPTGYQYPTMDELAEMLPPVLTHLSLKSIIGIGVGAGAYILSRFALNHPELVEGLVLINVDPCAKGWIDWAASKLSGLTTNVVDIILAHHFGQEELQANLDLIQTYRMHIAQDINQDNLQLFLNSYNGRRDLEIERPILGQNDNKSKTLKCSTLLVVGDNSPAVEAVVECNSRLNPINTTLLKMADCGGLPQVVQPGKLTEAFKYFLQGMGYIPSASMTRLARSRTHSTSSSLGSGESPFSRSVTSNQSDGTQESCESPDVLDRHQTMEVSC", "assay": "isothermal titration calorimetry; intrinsic tryptophan fluorescence quenching", "format": "binding", "conditions": "ITC 25 °C, 10 mM lactate into 0.5 mM NDRG3; Trp quenching with sodium lactate, 100 μM protein, 10 mM NaH2PO4 pH 7.5; non-covalent; used as positive control for TFEB"}},
  "data": [
    {"smiles": "C[C@H](O)C(=O)SCCNC(=O)CCNC(=O)[C@H](O)C(C)(C)COP(=O)(O)OP(=O)(O)OC[C@H]1O[C@@H](n2cnc3c(N)ncnc32)[C@H](O)[C@@H]1OP(=O)(O)O", "note": "[L-lactyl-CoA]", "values": [
      {"measurement": "in vitro lactylation of recombinant human TFEB, anti-Kla western blot", "setting": "p300; p300-HA", "value": "lactylation was observed in TFEB incubated with p300-HA instead of transferase-inactivated p300-WY-HA"}
    ]},
    {"smiles": "C[C@H](O)C(=O)O", "note": "[lactate]", "values": [
      {"measurement": "isothermal titration calorimetry; intrinsic tryptophan fluorescence quenching", "setting": "NDRG3", "value": "sodium lactate resulted in the fixed tryptophan fluorescence quenching of purified NDRG3"}
    ]}
  ]
}
